For data set [1] the following is noted: p(10% DT, DTE succinate) solvent cast film, 20% loading. The procedure: 1 ml of the buffer was withdrawn periodically and run through the HPLC system described in Example 1.
Naproxen was formulated at 20% loading in a matrix of p(10% DT, DTE succinate) by solvent casting from methylene chloride and assessed for long-term release.

The test system of another data set is post-operative pain. The settings on record: after cesarean delivery; comparator ropivacaine continuous wound infiltration with intravenous (iv) diclofenac; cited from earlier work.
A short description of data set [2]: Ketoprofen release studies from polyarylate films and microparticles in phosphate buffered saline, HPLC. The settings on record: for ketoprofen release rate: p(10% DT, DTE succinate) film; for ketoprofen released per day: p(10% DT, DTE succinate) solvent cast film.
Data set [3] in a line: In vitro release profile of ketoprofen-loaded microparticles using dialysis tubes. The format is physicochemical. The settings on record: p(10% DT, DTE succinate) microparticles 125-180 μm, 40% loading. On the procedure:
The p(10% DT, DTE succinate) was dried at 40° C. for 3 days and analyzed. 4.8 g of polymer was placed in a plastic beaker and topped with an excess of ethanol. The polymer was allowed to stand in ethanol at 50° C. for 2-3 hours. […] After overnight drying, the polymer/drug mixture was ground using a coffee grinder (overhead design). First, the polymer/drug mixture was cooled in liquid nitrogen. Then the polymer-drug mass was mixed with ground dry ice, added to the container of the grinder and ground at the highest speed for at least 5 min. The whole mixture of dry ice plus polymer/drug powder was transferred into a beaker, covered with Kimwipes™ and placed into a vacuum oven at 40° C. to dry overnight.
The in vitro release profile of the microparticles was determined using dialysis tubes.

For data set [4] the following is noted: given orally for systemic distribution; cited from earlier work.
The mark [5] stands for this setting: p(10% DT, DTE adipate), PBS pH 7.4, 37° C.
The mark [6] stands for this setting: p(10% DT, DTE succinate) melt processed, compression molded film.

Turning to `COc1ccc2cc([C@H](C)C(=O)O)ccc2c1` [Naproxen], in data set [1], the “drug released per day” value was found to be 1 % per day, the release kinetics result is “zero order kinetics” and the “time until release is complete” value is listed as “about 3 months”.

`O=C(O)Cc1ccccc1Nc1c(Cl)cccc1Cl` [diclofenac]: in the data set with post-operative pain, the “efficacy of continuous wound infiltration versus comparator” value is “more effective”.

`CC(C(=O)O)c1cccc(C(=O)c2ccccc2)c1` (centres unmarked) [ketoprofen]: in data set [2] (DTO polymers, PBS pH 7.4, 37° C.), the “ketoprofen release mechanism (shape of the release curve)” value was “diffusion controlled”. Besides, the ketoprofen release kinetics entry is on record as “fairly linear release” in data set [2] (microparticles milled from compression molded p(10% DT, DTE succinate) film, all sizes); “approximately zero order kinetics” in data set [2] (p(10% DT, DTE adipate), after initial burst, PBS pH 7.4, 37° C.); “zero order kinetics” in data set [2] (setting [6]); “zero order kinetics” in data set [2] (p(10% DT, DTE succinate) solvent cast films, all four loadings 10%, 20%, 30%, 40%). For the same compound, the “time until ketoprofen release is completed” value is reported as “about 60 days” in data set [2] (microparticles milled from compression molded p(10% DT, DTE succinate) film, largest particles (>500 microns)) and “about 40 days” in data set [2] (microparticles milled from compression molded p(10% DT, DTE succinate) film, smallest particles (212 to 425 microns)). In data set [2] (setting [5]), the “duration of ketoprofen release” value came out at 2 weeks. Besides, in data set [2] (setting [5]), the “initial burst of ketoprofen release” value came to 20%. The results for the ketoprofen release rate result in data set [2] (HMW polymer (94,000)) and in data set [2] (LMW polymer (67,800)) were “about 3 % per day” and “about 5 % per day”, respectively. In addition, the “rate of ketoprofen release” value in data set [2] (setting [6]) is 1.3 % per day. Besides, the “ketoprofen released per day” value in data set [2] (10% loading, PBS pH 7.4, 37° C.) is “about 2 % per day”; in data set [2] (20% loading, PBS pH 7.4, 37° C.), 5 % per day; in data set [2] (30% loading, PBS pH 7.4, 37° C.), 6 % per day; in data set [2] (40% loading, PBS pH 7.4, 37° C.), “about 8 % per day”. Also, in data set [3], the “ketoprofen release after 6 days” value came to 100%. Further, the “ketoprofen released within 24 hours” value in data set [3] is listed as “About 50%”. For the same compound, in data set [4], the “effective plasma concentration range” value is on record as 1,000-4,000 ng/mL.

The record behind these values is patent US8652525B2, “NSAID delivery from polyarylates” (TYRX, Inc., priority 2008, dated 2014).
